From paper PMC12579162, “Synthesized Depside Molecules Suppress the Progression of Colorectal Cancer by Binding VDAC1/PHB/MMP9 Being at the Crossroads of Stemness, Motility, Apoptosis, and Metabolism” (MedComm, 2025)
pIC50: −log10 of the molar value. Where two headings read alike, the source gives them in different places.

What was measured:
[1] = Tissue distribution in CT26 tumor-bearing mice (LC–MS/MS); type: in vivo; conditions: Balb/c mice, 10 mg/kg; for distribution in tumor and intestines: 24 h, compared with TU and DA; for concentration at 24 h: mouse
Experimental: Concentrations of TU, DA, SB4, and SB5 in tissues (liver, intestine, and tumor) and plasma were measured using LC–MS/MS. Samples were prepared by 40 µL of plasma or the supernatant separated from the tissue pellet and added 120 µL of acetonitrile (ACN) containing internal standard (IS). The samples were vortexed, sonicated for 30 min, and then left on ice for 15 min. Subsequently, the samples were centrifuged at 3000×g for 20 min, and the supernatant was analyzed. Calibration curves were prepared by matrix matched with tissue supernatants‐treated DMSO. The standard concentrations were set at 0, 62.5, 250, and 1000 nM for each compound. The LC–MS/MS system comprised a 40D‐XS UHPLC system (Shimadzu), and API 4000 mass spectrometer equipped with a Turbo V IonSpray source (Applied Biosystems). The sample separation was performed on a Waters Atlantis dC18 column (2.1 × 100 mm, 3 µm) using a mobile phase consisting of 0.1% formic acid in water (mobile phase A) and 0.1% formic acid in ACN (mobile phase B). A linear gradient of the two solvents was used (0 min, 0% B; 4 min, 50% B; 7 min, 95% B; 8 min, 0% B), and the equilibration time was 2 min. The flow rate was set at 0.4 mL/min, the column temperature was maintained at 30°C, and the injection volume was 10 µL.
MS/MS analysis was conducted in multiple reaction monitoring (MRM). In positive ion mode transitions were set for DA (m/z 375 → 193), SB4 (m/z 447 → 193), SB5 (m/z 461 → 193), and the IS carbamazepine (100 nM, m/z 237 → 197). In negative ion mode, MRM transitions were monitored for TU (m/z 339 → 217) and the IS 4‐methylumbelliferone (300 nM, m/z 175 → 133). The Turbo V Ion Spray interface was operated in 5500 V (pos) or −4500 V (neg), with a source temperature of 600°C. Nebulizing gas flow, auxiliary gas flow, and curtain gas flow were set at 50, 40, and 30 L/min, respectively, while the collision gas pressure was maintained at 3.4 × 10^−⁵ Torr. Data were analyzed by analyst 1.6.2 (AB Sciex, Framingham, USA).

[2] = system: MMP9 promoter in HEK293T cells; experiment: MMP9 promoter reporter assay; type: cell-based, human; conditions: 2.5 and 5 µM, 24 h
Experimental: HEK293T was plated in a 24-well plate, left to attach, and then transfected with 100 ng of AP-1, STAT, Gli, CSL, TOPFLASH (with 100 ng β-catenin), NF-kB, Hes-1 and MMP9 reporter plasmids with 2 ng of Renilla-luc (pRL-TK) plasmid. MMP9 reporter assays were tested by stimulating Gli1-Flag, Gli2-Flag, ΔEN1-Myc, and MYC-flag plasmids. Transfections were performed using the X-treme GENE 9 DNA transfection reagent (Roche, Werk Penzberg, Germany). After 24 hours transfection, cells were treated with compounds or DMSO and incubated for 24 h at 37 °C under 5% CO2. The Dual-Luciferase reporter assay system (Promega, Madison, WI, USA) was used.

caspase 3/7 in CRC cells = experiment: Caspase-Glo 3/7 activity; type: cell-based, human; conditions: 10 µM, 48 h, relative to DMSO
Experimental: Caspase 3/7 activity was determined with a Caspase-Glo 3/7 assay kit (Promega). CRC cells were seeded in 96 well plates, 10000 per well cells, with media containing 2% FBS. Treatments were applied after overnight incubation, incubated for 48 hours. After treatment, Caspase-Glo reagent was added to each well and incubated in the dark for 1 hour. […] was recorded with the GloMax® Microplate Reader.

MCF10A cells = experiment: Spheroid formation assay, MCF10A; type: cell-based, human; conditions: noncancerous MCF10A, 10–14 days
Experimental: Monolayer cells were separated into single‐cell suspensions at around 70% confluence using a solution of trypsin. After that, the cells were added to N2‐supplemented DMEM/F12 that contained human basal fibroblast growth factor and human recombinant epidermal growth factor. Cells seeded at a density of 5 × 10^3 cells/well in ultra‐low attachment 24‐well plates (Corning Inc., Corning, NY, USA). After 10–14 days of culture, spheres were quantitated by inverted phase contrast microscopy. The relative sphere formation ability was calculated through the IMT iSolution software (IMT iSolution Inc., Northampton, NJ, USA) measuring the pixel intensity of the sphere area randomly in each plate.

CT26 cells = experiment: MTT cell viability, CT26; type: cell-based; conditions: Mus musculus, 48 h, MTT assay
Experimental: Cells (3 × 10^3 cells/well) were seeded on a 96‐well plate, grown overnight, and then treated with compounds at indicated concentrations for 48 h. After incubation with MTT for 4 h at 37°C, cells were lysed with 150 µL of DMSO (Sigma–Aldrich, St. Louis, USA). Absorbance was measured at 570 nm on a microplate reader with the Gen5 software (v.2.03.1; BioTek, Winooski, VT, USA).

[3] = system: CaCo2, DLD1, HT29, HCT116, and SW620 cells; experiment: Cell cycle analysis by flow cytometry; type: cell-based, human; conditions: 10 µM, 48 h
Experimental: Cells were cultured in a six‐well plate at the density of 2 × 10^5 cells/well until adherence. Cells were treated with DMSO or compound for 48 h. Apoptosis or cell cycle experiments were then performed. For apoptosis analysis, cells were harvested and washed with PBS, resuspended in 100 µL of 1× binding buffer followed by staining with 4 µL of Annexin V–FITC (BD, Biosciences, San Jose, CA, USA), and 8 µL of 50 µg/mL propidium iodide (PI; BD Biosciences, San Jose, CA, USA) for 30 min in the dark. For cell cycle analysis, cells were washed with FACS washing buffer, incubated with trypsin solution, followed by RNase A for 10 min at room temperature. Cells were centrifuged and pellets were collected and stained with 100 µL of 4 mg/mL PI (Sigma–Aldrich) for 2 h in the dark at 4°C. Cells were detected by flow cytometry on a CytoFLEX instrument (Beckman Coulter Life Sciences, Indianapolis, IN, USA).

[4] = liver, read-out: concentration in liver
[5] = plasma, read-out: quantity in plasma

concentration at 24 h [1, 4]	concentration at 24 h [1, 5]	pIC50 (CT26 cells)	Structure (SMILES)	distribution in tumor and intestines [1]	MMP9 promoter activity [2]	caspase 3/7 activity (caspase 3/7 in CRC cells)	spheroid formation (MCF10A cells)	cell-cycle distribution [3]
1 to 2 nM	< 2 nM	5.64	COCCCOc1c(C)c(OC(=O)c2c(C)cc(OC)c(C)c2OC)cc(C)c1C(=O)OC [SB5, 4-(Methoxycarbonyl)-3-(3-methoxypropoxy)-2,5-dimethylphenyl 2,4-dimethoxy-3,6-dimethylbenzoate]	bioavailability is improved compared with TU and DA	downregulated	induced	did not change the inhibition or induction of spheroid formation in a statistically significant way	induced Sub G1 and G2/M populations while G1 population decreased
1 to 2 nM	< 2 nM	5.27	COCCOc1c(C)c(OC(=O)c2c(C)cc(OC)c(C)c2OC)cc(C)c1C(=O)OC [SB4, 4-(Methoxycarbonyl)-3-(2-methoxyethoxy)-2,5-dimethylphenyl 2,4-dimethoxy-3,6-dimethylbenzoate]	bioavailability is improved compared with TU and DA	downregulated	induced	did not change the inhibition or induction of spheroid formation in a statistically significant way	induced Sub G1 and G2/M populations while G1 population decreased
